The numbers were not newly measured in PubChem BioAssay AID1259409 (Chemical Carcinogenesis Research Information System (CCRIS), 2018), which cites them from elsewhere.

Molecules are shown by their SMILES.

The series deals with rodent chemically induced tumor inhibition, incidence and multiplicity. Briefly: CCRIS tumor inhibitor studies. Particulars: Species: MOUSE.

For `COc1ccc(O)cc1`, the “tumour outcome (control, treated, inhibition, significance)” value is, setting by setting: (Carcinogen: BENZO[A]PYENE, 50-32-8, Dose [Inhibitor]: 0.028 MMOL/G DIET DAILY FOR 6 WK STARTING 14 D PRIOR TO THE FIRST UNTIL 1 D AFTER LAST CARCINOGEN DOSE FOLLOWED BY AN OB, Route [Inhibitor]: ORAL, Strain/Sex: STRAIN-A/FEMALE, Target Tissue: Type of Lesion: LUNG: ADENOMA, Dose [Carcinogen]: 3 MG IN 0.2 ML COTTONSEED OIL GIVEN 3X AT 2 WK INTERVALS, Promoter: NONE USED) 100%, 100%, 0%, not significant; (Carcinogen: BENZO[A]PYENE, 50-32-8, Dose [Inhibitor]: 0.028 MMOL/G DIET DAILY STARTING 2 WK AFTER FINAL CARCINOGEN DOSE THROUGH THE END OF THE STUDY (STUDY DURATION: 14 WK), Route [Inhibitor]: ORAL, Strain/Sex: ICR/FEMALE, Target Tissue: Type of Lesion: FORESTOMACH: PAPILLOMA, Dose [Carcinogen]: 1.5 MG IN 0.2 ML CORN OIL GIVEN 2/WK FOR 4 WK, Promoter: NONE USED) 97%, 100%, -3%, not significant; (Carcinogen: BENZO[A]PYRENE, 50-32-8, Dose [Inhibitor]: 0, 3.3 UMOL/G DIET BEGINNING 1 WK PRIOR TO CARCINOGEN TREATMENT AND CONTINUING FOR 1 WK POST CARCINOGEN TREATMENT FOLLOW, Route [Inhibitor]: ORAL, Strain/Sex: CD-1/FEMALE, Target Tissue: Type of Lesion: FORESTOMACH: PAPILLOMA, Dose [Carcinogen]: 1 MG IN 0.2 ML CORN OIL 2/WK FOR 4 WK, Promoter: NONE USED) 85%, 46%, 46%, p<0.01; (Carcinogen: BENZO[A]PYRENE, 50-32-8, Dose [Inhibitor]: 0.03 MMOL/G OF DIET DAILY STARTING 7 D BEFORE AND CONTINUING THROUGH 3 D AFTER CARCINOGEN TREATMENT FOLLOWED BY OBSERVAT, Route [Inhibitor]: ORAL, Strain/Sex: ICR/FEMALE, Target Tissue: Type of Lesion: FORESTOMACH: NEOPLASM, Dose [Carcinogen]: 1 MG IN 0.2 ML CORN OIL 2/WK FOR 4 WK, Promoter: NONE USED) 100%, 65%, 35%, p 0.053; (Carcinogen: BETA-PROPIOLACTONE, 57-57-8, Dose [Inhibitor]: 4.2 MG/G DIET DAILY FOR 14 WK STARTING 12 D PRIOR TO FIRST CARCINOGEN DOSE UNTIL 1 D AFTER LAST CARCINOGEN DOSE FOLLOWED, Route [Inhibitor]: ORAL, Strain/Sex: ICR/FEMALE, Target Tissue: Type of Lesion: FORESTOMACH: PAPILLOMA OR CARCINOMA, Dose [Carcinogen]: 2 MG IN 0.1 ML PROPYLENE GLYCOL 2/WK FOR 12 WK, Promoter: NONE USED) 100%, 41%, 59%, p<0.001; (Carcinogen: BETA-PROPIOLACTONE, 57-57-8, Dose [Inhibitor]: 5.2 MG IN 0.1 ML PROPYLENE GLYCOL 2/WK FOR 12 WK GIVEN 1 HR PRIOR TO EACH CARCINOGEN ADMINISTRATION FOLLOWED BY AN OBSER, Route [Inhibitor]: GAVAGE, Strain/Sex: ICR/FEMALE, Target Tissue: Type of Lesion: FORESTOMACH: PAPILLOMA OR CARCINOMA, Dose [Carcinogen]: 2 MG IN 0.1 ML PROPYLENE GLYCOL 2/WK FOR 12 WK, Promoter: NONE USED) 100%, 61%, 39%, p<0.001. For the setting “Carcinogen: BETA-PROPIOLACTONE, 57-57-8, Dose [Inhibitor]: 5.2 MG IN 0.1 ML PROPYLENE GLYCOL 2/WK FOR 12 WK GIVEN 4 HR PRIOR TO EACH CARCINOGEN ADMINISTRATION FOLLOWED BY AN OBSER, Route [Inhibitor]: GAVAGE, Strain/Sex: ICR/FEMALE, Target Tissue: Type of Lesion: FORESTOMACH: PAPILLOMA OR CARCINOMA, Dose [Carcinogen]: 2 MG IN 0.1 ML PROPYLENE GLYCOL 2/WK FOR 12 WK, Promoter: NONE USED”, the “tumour outcome (control, treated, inhibition, significance)” value is on record as 97%, 47%, 52%, p<0.001.
Consider `CC/C=C\C/C=C\C/C=C\CCCCCCCC(=O)OC[C@H](CO[C@@H]1O[C@H](CO[C@H]2O[C@H](CO)[C@H](O)[C@H](O)[C@H]2O)[C@H](O)[C@H](O)[C@H]1O)OC(=O)CCCCCCCCCCCCC`, for which the “tumour outcome (control, treated, inhibition, significance)” value (Carcinogen: 7,12-DIMETHYLBENZ[A]ANTHRACENE, 57-97-6, Dose [Inhibitor]: 0, 85 NMOL IN 0.1 ML ACETONE 2/WK FOR 20 WK APPLIED 1 HR PRIOR TO EACH PROMOTER DOSE (STUDY DURATION: 21 WK), Route [Inhibitor]: DERMAL, Strain/Sex: ICR/FEMALE, Target Tissue: Type of Lesion: SKIN: PAPILLOMA, Dose [Carcinogen]: 390 NMOL IN 0.1 ML ACETONE ONCE, Promoter: 12-O-TETRADECANOYLPHORBOL-13-ACETATE, 16561-29-8) is 100%, 68%, 32%, p<0.05.
For `CCCCC1OC(=O)c2ccccc21` (stereo not given), under “Carcinogen: BENZO[A]PYRENE, 50-32-8, Dose [Inhibitor]: 0, 20 MG 3/WK FOR 4 WK ON DAYS OTHER THAN THE CARCINOGEN TREATMENT (STUDY DURATION: 20 WK), Route [Inhibitor]: GAVAGE, Strain/Sex: STRAIN-A/FEMALE, Target Tissue: Type of Lesion: FORESTOMACH: TUMOR, Dose [Carcinogen]: 1 MG IN 0.2 ML COTTONSEED OIL 2/WK FOR 4 WK, Promoter: NONE USED”, the “tumour outcome (control, treated, inhibition, significance)” value is on record as 13/19 (68%), 6/20 (30%), 56%, p<0.005.
Take `Cc1cccc(C(=O)/C=C/c2cccc(O)c2)c1`: the “tumour outcome (control, treated, inhibition, significance)” value (Carcinogen: 7,12-DIMETHYLBENZ[A]ANTHRACENE, 57-97-6, Dose [Inhibitor]: 0, 1.62 MICROMOLAR 2/WK FOR 18 WK APPLIED SIMULTANEOUSLY WITH PROMOTER DOSE (STUDY DURATION: 18 WK), Route [Inhibitor]: DERMAL, Strain/Sex: ICR/FEMALE, Target Tissue: Type of Lesion: SKIN: TUMOR, Dose [Carcinogen]: 100 UG ONCE, Promoter: 12-O-TETRADECANOYLPHORBOL-13-ACETATE, 16561-29-8) is recorded as 90%, 20%, 78%, not calculated.
